Measurements from paper PMC9885530, “Identification of Natural Products Inhibiting SARS-CoV-2 by Targeting Viral Proteases: A Combined in Silico and in Vitro Approach” (Journal of Natural Products, 2023).
Values joined by “and” are separate entries in the source; they are usually repeats but may differ in a detail not shown here. Equal entries are not always repeated. Where two headings read alike, the source gives them in different places.

Tests used:
[1] = biological target: SARS-CoV-2 M^pro (Severe acute respiratory syndrome coronavirus 2, UniProt P0DTD1); assay: biochemical; assay type: biochemical; conditions: buffer with 5 mM DTT; for inhibition at 20 µM: 20 μM compound, for values marked a the relative standard deviation of 6% applies, read-out: SARS-CoV-2 M^pro enzyme inhibition (%) 20 μM; for inhibition at 100 µM: 100 μM compound, read-out: SARS-CoV-2 M^pro enzyme inhibition (%) 100 μM; for IC50: read-out: SARS-CoV-2 M^pro IC50
[2] = system: M^pro; conditions: read-out: M^pro IC50 previously reported, cited from earlier work
[3] = biological target: T1, M^pro (Severe acute respiratory syndrome coronavirus 2, UniProt P0DTD1); assay type: binding; conditions: 2 μM protein, 50 μM ligand
[4] = Cytotoxicity in Calu-3 cells; conditions: human
[5] = system: SARS-CoV-2; assay: Antiviral assay in Calu-3 cells (spike staining); assay type: cell-based
[6] = biological target: T1, M^pro; assay: Competitive 1H CPMG relaxation dispersion NMR with compound 4 as reporter ligand; assay type: binding, SARS-CoV-2; conditions: competition with compound 4
[7] = biological target: T2, SARS-CoV-2 PLpro (Severe acute respiratory syndrome coronavirus 2, UniProt P0DTD1); assay: PL^pro fluorogenic peptide cleavage assay (substrate Z-RLRGG-AMC); assay type: biochemical; design: papain-like protease (PL^pro; domain of nsp3); His; purchased BPS Biosciences BPS-100735-1
[8] = Cytotoxicity in Caco-2 cells; conditions: human
[9] = system: SARS-CoV-2; assay: Antiviral assay in Caco-2 cells; assay type: cell-based
[10] = biological target: T2, SARS-CoV-2 PLpro; assay: biochemical; design: papain-like protease (PL^pro; domain of nsp3); purchased Anaspec (Fremont, USA) AS-72263; conditions: for SARS-CoV-2 PLpro inhibition % enzyme inhibition (20 µM): commercial Anaspec assay kit; for inhibition at 20 µM: read-out: SARS-CoV-2 PLpro inhibition % enzyme inhibition (20 µM)
[11] = in vitro; conditions: human
[12] = in vitro; conditions: human, Caco-2
[13] = Severe acute respiratory syndrome coronavirus 2, Calu-3 cells, MOI 0.01, 48 h postinfection, read-out: Anti-SARS-CoV-2 activity IC50

Compound	inhibition at 20 µM [1] [%]	inhibition at 100 µM [1] [%]	STD signals [3]	IC50 [1]	CC50 [4] [µM]	IC50 [5, 13] [µM]	displacement of reporter ligand 4 from M^pro (CPMG-RD) [6]	SARS-CoV-2 PLpro inhibition % enzyme inhibition (20 µM) [10]	inhibition at 20 µM [10] [%]	CC50 [11] [µM]	further results
O=c1cc(-c2ccccc2)oc2cc(O)c(O)c(O)c12 [Compound 4, baicalein, reference compound]	8.6	90 ± 1.4	–	–	–	–	–	–	–	–	IC50 [2]: 0.98 µM
CC(C)=CC[C@@]12Oc3cc(O)c([C@H]4C=C(C)C[C@H](c5ccc(O)cc5O)[C@H]4C(=O)c4ccc(O)cc4O)c(O)c3C(=O)[C@]1(O)Oc1cc(O)ccc12 [Compound 13, sanggenon O]	–	–	no STD signals were detected	6.7 µM	24.9	8	did not significantly displace 4	–	–	–	–
CC(=O)O[C@H](CC=C(C)C)C1=CC(=O)c2c(O)ccc(O)c2C1=O [Compound 30, acetylshikonin]	–	–	–	–	> 100	> 100	–	significant enzyme inhibition	100 ± 9.5	–	IC50 ([7]; Z-RLRGG-AMC substrate): 24.3 µM; CC50 [8]: 65.8 µM; IC50 ([9]; Severe acute respiratory syndrome coronavirus 2, Caco-2, read-out: Anti SARS-CoV-2 activity Caco-2 IC50 (µM)): > 100 µM; IC50 ([2]; reported inhibition later described as assay artifact (ref 34)): 3.8 µM
CC(C)=CCCC1=C[C@H](c2c(O)cc3c(c2O)C(=O)C[C@@H](c2ccc(O)cc2O)O3)[C@@H](C(=O)c2ccc(O)cc2O)[C@H](c2ccc(O)cc2O)C1 [Compound 15, sanggenon G]	92.6	99.6 ± 0.2	no STD signals were detected	4.82 µM and 4.8 µM	–	7.6	displacement from the binding site	–	–	49.1	selectivity index (SI) ([5]; Calu-3 cells, cytotoxicity vs anti-SARS-CoV-2 activity): 6.5 and > 5
COc1ccc2c(=O)c(Oc3ccc(C(=O)NC(C)Cc4c[nH]c5ccccc45)cc3)coc2c1 (stereo not shown) [Compound 42]	–	–	–	–	–	–	–	significant enzyme inhibition	82.3 ± 25.3	> 100	IC50 ([5]; Severe acute respiratory syndrome coronavirus 2, Calu-3, 48 h, read-out: Anti-SARS-CoV-2 activity IC50 (μM)): > 100 µM; inhibition at 20 µM ([7]; read-out: SARS-CoV-2 PL^pro enzyme inhibition (%) 20 μM): 4.89 ± 1.3%; inhibition at 100 µM ([7]; read-out: SARS-CoV-2 PL^pro enzyme inhibition (%) 100 μM): 8.8 ± 7%; IC50 ([9]; Severe acute respiratory syndrome coronavirus 2, Caco-2 cells, read-out: Anti SARS-CoV-2 activity Caco-2 IC50): 7.1 µM; CC50 [12]: > 100 µM
CC(C)=CC[C@]12Oc3cc(O)c([C@H]4C=C(C)C[C@H](c5ccc(O)cc5O)[C@H]4C(=O)c4ccc(O)cc4O)c(O)c3C(=O)[C@@]1(O)Oc1cc(O)ccc12 [Compound 12, sanggenon C]	–	–	no STD signals were detected	7.24 µM and 7.2 µM	23.6	4.6	displacement from the binding site	–	–	–	–
